Assay results reported in patent US20250082587A1, “Method Of Treating Major Depressive Disorder” (CLEXIO BIOSCIENCES LTD., priority 2023, published 2025).

Tested on: subjects with MDD with an inadequate response to standard antidepressant therapy
Experiment: Phase 2, randomized double blind study of 40 mg immediate release once daily esketamine as adjunct therapy; change in MADRS score
Type: in vivo, human
Conditions: for Change from baseline against placebo (MADRS): sub-analysis, 40 mg oral once daily
Description: A Phase 2, randomized double blind study to assess the safety and efficacy of 40 mg immediate release once daily esketamine as an adjunct therapy for subjects with MDD with an inadequate response to standard antidepressant therapy.
The safety and efficacy of 65 subjects with MDD with an inadequate response to standard antidepressant therapy were assessed in a Phase 2, randomized double blind study following the administration of 40 mg of immediate release once daily esketamine as adjunct therapy.
The study comprised 3 phases, screening (Days 0-28), double-blind treatment (days 29-56) and post-treatment safety follow-up (days 57-70) following the last study treatment administration.
The study's primary efficacy endpoint was the change from baseline to week 4 in the 10 item Montgomery-Åsberg Depression Rating Scale (MADRS). Key secondary efficacy endpoints included the change in the self-rated Symptoms of Depression Questionnaire (SDQ) from Baseline to Week 4, the change in the Sheehan Disability Scale (SDS) from Baseline to Week 4, the change in the MADRS score from Baseline to Week 2 and the change in the Clinical Global Impression-Severity (CGI-S) from Baseline to Week 4.
During screening, subjects were assessed for study eligibility and washed out from disallowed drugs. Inclusion criteria for the study included the subjects presenting with a baseline MADRS of at least 24.
After being found eligible, subjects were randomized to receive once daily, either placebo or 40 mg of oral, immediate release, esketamine, respectively.
Subjects received the first dose of their study drug at the study site and were then closely monitored for 3 hours to assess for potential neuropsychiatric adverse events using a comprehensive set of scales to identify sleepiness, sedation and dissociative effects. Thereafter, the subject was provided with a 1 week supply of the study drug for administration at their place of residence and instructed to take the study drug in the evening (except at the day of the weekly visit when it is taken at the study site) and not to drive for at least 8 hours following the dosing. At every subject visit, a psychiatrist evaluated the subject's MADRS score.

In the case of `CN[C@]1(c2ccccc2Cl)CCCCC1=O` [esketamine, (2S)-2-(2-Chlorophenyl)-2-(methylamino)cyclohexanone], the “improvement in the symptoms” value (baseline MADRS of 28 or more, 40 mg immediate release oral, 28 days) is reported as “statistically significant improvement”, the “improvement in depression symptoms” value (baseline MADRS of less than 28, 40 mg immediate release oral, 28 days) is reported as “no identifiable improvement” and the “Change from baseline against placebo (MADRS)” value (from here on “Change from baseline … (MADRS)”) (baseline MADRS score <28, 28 days) is reported as “+4.25”. The “Change from baseline … (MADRS)” value (baseline MADRS score ≥28, 28 days, p value 0.005) was −7.425, the “Change from baseline … (MADRS)” value (baseline MADRS score ≥33, 28 days, p value 0.050) was −5.978 and the “primary efficacy endpoint (change from baseline to week 4 in MADRS) between treatment groups” value (subjects who completed the study, 40 mg oral once daily vs placebo) was “clinically meaningful and statistically significant”.
